Data published in the supplement of paper PMC10307832.

Tests used:
Test in all cases: relative viability (nuclei count vs DMSO), 5 days (fraction); higher = more cells survive
VX-11e + Tozasertib = compound: CC1=CN=C(N=C1C2=CNC(=C2)C(=O)N[C@H](CO)C3=CC(=CC=C3)Cl)NC4=C(C=C(C=C4)F)Cl [VX-11e] + Cc1cc(Nc2cc(N3CCN(C)CC3)nc(Sc3ccc(NC(=O)C4CC4)cc3)n2)n[nH]1 [Tozasertib] (partner 0.1 µM)
Summary of the method: (§1)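 One day after seeding in 1536-well plates, lung cancer cell lines were dosed by pin tool. Dosing was either single-drug or a fixed anchor-drug dose plus five library-drug doses (not always all listed) in √10 steps. After 5 days, nuclei were stained in one fix-and-stain step and counted on 4× images, and relative viability is the nuclei count of treated wells over that of vehicle wells, given as the median of duplicate plates.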

VX-11e + Bortezomib = compound: CC1=CN=C(N=C1C2=CNC(=C2)C(=O)N[C@H](CO)C3=CC(=CC=C3)Cl)NC4=C(C=C(C=C4)F)Cl [VX-11e] + CC(C)C[C@H](NC(=O)[C@H](Cc1ccccc1)NC(=O)c1cnccn1)B(O)O [Bortezomib] (partner 0.002 µM)
Summary of the method: as §1

VX-11e + Decitabine = compound: CC1=CN=C(N=C1C2=CNC(=C2)C(=O)N[C@H](CO)C3=CC(=CC=C3)Cl)NC4=C(C=C(C=C4)F)Cl [VX-11e] + Nc1ncn([C@H]2C[C@H](O)[C@@H](CO)O2)c(=O)n1 [Decitabine] (partner 2 µM)
Summary of the method: as §1

VX-11e + AZD7762 = compound: CC1=CN=C(N=C1C2=CNC(=C2)C(=O)N[C@H](CO)C3=CC(=CC=C3)Cl)NC4=C(C=C(C=C4)F)Cl [VX-11e] + NC(=O)Nc1cc(-c2cccc(F)c2)sc1C(=O)N[C@H]1CCCNC1 [AZD7762] (partner 0.2 µM)
Summary of the method: as §1

Row | Cell Line | relative viability (VX-11e + Tozasertib; first compound 0.04 µM) | relative viability (VX-11e + Tozasertib; first compound 0.1265 µM) | relative viability (VX-11e + Tozasertib; first compound 0.4 µM) | relative viability (VX-11e + Tozasertib; first compound 1.265 µM) | relative viability (VX-11e + Tozasertib; first compound 4 µM) | relative viability (VX-11e + Bortezomib; first compound 0.04 µM) | relative viability (VX-11e + Bortezomib; first compound 0.1265 µM) | relative viability (VX-11e + Bortezomib; first compound 0.4 µM) | relative viability (VX-11e + Bortezomib; first compound 1.265 µM) | relative viability (VX-11e + Bortezomib; first compound 4 µM) | relative viability (VX-11e + Decitabine; first compound 0.04 µM) | relative viability (VX-11e + Decitabine; first compound 0.1265 µM) | relative viability (VX-11e + Decitabine; first compound 0.4 µM) | relative viability (VX-11e + Decitabine; first compound 1.265 µM) | relative viability (VX-11e + Decitabine; first compound 4 µM) | relative viability (VX-11e + AZD7762; first compound 0.04 µM) | relative viability (VX-11e + AZD7762; first compound 0.1265 µM) | relative viability (VX-11e + AZD7762; first compound 0.4 µM) | relative viability (VX-11e + AZD7762; first compound 1.265 µM) | relative viability (VX-11e + AZD7762; first compound 4 µM)
1 | NCI-H1355 | 0.516 | 0.544 | 0.457 | 0.346 | 0.282 | 1.01 | 1.17 | 0.614 | 1.11 | 0.763 | 0.401 | 0.376 | 0.34 | 0.413 | 0.31 | 0.757 | 0.695 | 0.45 | 0.615 | 0.368
2 | HOP-62 | 0.344 | 0.368 | 0.402 | 0.321 | 0.24 | 0.688 | 0.963 | 0.553 | 0.214 | 0.515 | 0.223 | 0.239 | 0.213 | 0.248 | 0.312 | 0.486 | 0.644 | 0.234 | 0.315 | 0.166
3 | NCI-H2405 | 0.804 | 0.757 | 0.768 | 0.779 | 0.256 | 1.04 | 0.953 | 0.988 | 0.952 | 0.601 | 0.761 | 0.733 | 0.305 | 0.776 | 0.443 | 0.835 | 0.729 | 0.625 | 0.671 | 0.412
4 | EPLC-272H | 0.224 | 0.262 | – | 0.193 | 0.205 | 0.94 | 0.799 | 0.841 | 0.839 | 0.665 | 0.331 | 0.337 | – | 0.29 | 0.178 | 0.147 | 0.21 | – | 0.201 | 0.285
5 | NCI-H3122 | 0.452 | 0.413 | – | 0.23 | 0.173 | 1.11 | 1.03 | 0.743 | 0.832 | 0.676 | 0.418 | 0.484 | 0.335 | 0.39 | 0.209 | 1.13 | 1.13 | 0.353 | 0.933 | 0.577
6 | NCI-H1993 | 0.626 | 0.603 | 0.639 | 0.562 | 0.514 | – | 1.04 | – | 0.742 | 0.765 | – | 0.644 | 0.674 | 0.659 | 0.509 | – | 0.884 | 0.687 | 0.453 | 0.48
7 | LCLC-103H | 0.467 | 0.412 | 0.48 | 0.3 | 0.4 | 1.07 | 1.11 | 1.03 | 0.658 | 0.917 | 0.726 | 0.701 | 0.726 | 0.742 | 0.608 | 0.766 | 0.71 | 0.801 | 0.606 | 0.654
8 | HCC-366 | 0.12 | 0.0759 | – | 0.0517 | 0.0473 | 0.959 | 0.895 | – | 0.864 | 0.759 | 0.402 | 0.348 | – | 0.322 | 0.217 | 0.429 | 0.235 | – | 0.21 | 0.16
9 | NCI-H441 | 0.753 | 0.55 | – | 0.585 | 0.453 | 0.54 | 0.436 | – | 0.963 | 0.432 | 0.282 | 0.273 | – | 0.218 | 0.306 | 1.23 | 1.12 | – | 1.17 | 1.05
10 | LC-2-ad | 0.522 | 0.45 | 0.319 | 0.383 | 0.369 | 1.13 | 0.962 | 0.894 | 0.403 | 0.841 | 0.798 | 0.776 | 0.703 | 0.872 | 0.654 | 0.913 | 0.844 | 0.798 | 0.458 | 0.468
11 | HARA | 0.106 | 0.118 | 0.119 | 0.0971 | 0.0712 | 0.992 | 1.08 | 1.13 | 0.507 | 0.803 | 0.491 | 0.417 | 0.38 | 0.365 | 0.467 | 0.575 | 0.391 | 0.258 | 0.281 | 0.306
12 | PC-14 | 0.66 | 0.469 | 0.395 | 0.331 | 0.278 | 0.967 | 0.798 | 0.818 | 0.869 | 0.527 | 0.243 | 0.19 | 0.202 | 0.247 | 0.235 | 0.341 | 0.339 | 0.274 | 0.278 | 0.256
13 | LCLC-97TM1 | 0.21 | 0.223 | 0.2 | 0.166 | 0.179 | 0.591 | 0.675 | 0.943 | 0.339 | 0.107 | 0.259 | 0.209 | 0.221 | – | 0.171 | 0.259 | 0.172 | 0.23 | 0.175 | 0.14
14 | LU99A | 0.25 | 0.246 | 0.269 | 0.244 | 0.22 | 0.965 | 0.984 | 0.769 | 0.284 | 0.239 | 0.872 | 0.81 | 0.822 | 0.727 | 0.347 | 0.244 | 0.37 | 0.142 | 0.18 | 0.195
15 | NCI-H1651 | 0.898 | 0.523 | 0.536 | 0.38 | 0.253 | 0.946 | 0.879 | 0.921 | 0.922 | 0.871 | 0.445 | 0.633 | 0.541 | 0.497 | 0.59 | 0.331 | 0.399 | 0.464 | 0.47 | 0.377
16 | NCI-H460 | 0.678 | 0.268 | 0.0898 | 0.031 | 0.0316 | 1.15 | 0.986 | 0.91 | 0.648 | 0.102 | 0.568 | 0.43 | 0.165 | 0.472 | 0.184 | 0.561 | 0.54 | – | 0.646 | 0.378
17 | ChaGo-K-1 | 0.219 | 0.233 | 0.234 | 0.188 | 0.186 | 1.01 | – | 1.11 | 0.759 | 0.772 | 0.534 | 0.495 | 0.511 | 0.51 | 0.5 | 0.889 | 0.801 | 0.796 | 0.896 | 0.767
